Earlier results, collected in patent publication US7052717B2, “Storage stable thyroxine active drug formulations and methods for their production” (Mylan Pharmaceuticals Inc., priority 2001, dated 2006).

Conditions: high humidity, light or high temperature; Won, Pharm. Res. 9(1):131-137, 1992

Question: Which “stability of drug substance” value does the source give for `N[C@@H](Cc1cc(I)c(Oc2cc(I)c(O)c(I)c2)c(I)c1)C(=O)O` [Levothyroxine sodium, levothyroxine sodium] here?
Answer: quite unstable, hygroscopic and degrades rapidly when subjected to high humidity, light or high temperature
